Reference: ChEMBL document CHEMBL5724696, “Autophagy assay results for EUbOPEN Chemogenomics Library” (2024)
Several values for one entry are separate records, joined by “and”; a condition that tells them apart may be missing. Equal entries are not always repeated.

What was measured:
Assay type in all cases: functional, Homo sapiens
TERT-RPE1 = assay: (§1) Here: values are normalized to the negative (DMSO; defined as 0% autophagy induction) and positive (250nM Torin1; mTOR inhibitor; defined as maximal inducer of autophagy = 100%) control compounds and represented as % of autophagy induction. […] The impact of autophagy induction on cells is complex and depends on the affected target. As such, the magnitude of a phenotype may not be equally mirrored in the %-value of autophagy induction and vice versa. The dynamics of the induction may indicate the mode of activation: e.g. activation via phosphorylation or a signaling cascade may occur fast, while activation via transcription factors may take considerably longer. […] Of note, treatment concentrations may be sub-optimal for specific compounds, leading to false negative annotations.; settings: Culturing Media DMEM/F12 (1:1), 1 % Penicillin/Streptomycin, 10% Fetal bovin serum Add-On: No, Screening Media Control DMEM/F12 (1:1), Screening Media Samples DMEM/F12 (1:1)
U2OS [1] = assay: as §1; settings: Culturing Media DMEM, 1 % Penicillin/Streptomycin, 10% Fetal bovin serum Add-On: No, Screening Media Control DMEM, Screening Media Samples DMEM
U2OS [2] = assay: as §1; settings: Culturing Media DMEM, 1 % Penicillin/Streptomycin, 10% Fetal bovin serum Add-On: No, Screening Media Control DMEM, Screening Media Samples DMEM; remark: listed apart in the source
[3] = Compound Concentration 0.5 uM, Timepoint 12 hours
[4] = Compound Concentration 0.5 uM, Timepoint 24 hours
[5] = Compound Concentration 0.5 uM, Timepoint 36 hours
[6] = Compound Concentration 0.5 uM, Timepoint 60 hours
[7] = Compound Concentration 2 uM, Timepoint 12 hours
[8] = Compound Concentration 2 uM, Timepoint 24 hours
[9] = Compound Concentration 2 uM, Timepoint 36 hours
[10] = Compound Concentration 2 uM, Timepoint 60 hours
[11] = Compound Concentration 10 uM, Timepoint 12 hours
[12] = Compound Concentration 10 uM, Timepoint 24 hours
[13] = Compound Concentration 10 uM, Timepoint 36 hours
[14] = Compound Concentration 10 uM, Timepoint 60 hours

SMILES	autophagy induction (U2OS [1]; [3])	autophagy induction (U2OS [1]; [4])	autophagy induction (U2OS [1]; [5])	autophagy induction (U2OS [1]; [6])	autophagy induction (U2OS [1]; [7])	autophagy induction (U2OS [1]; [8])	autophagy induction (U2OS [1]; [9])	autophagy induction (U2OS [1]; [10])	autophagy induction (U2OS [1]; [11])	autophagy induction (U2OS [1]; [12])	autophagy induction (U2OS [1]; [13])	autophagy induction (U2OS [1]; [14])	autophagy induction (U2OS [2]; [3])	autophagy induction (U2OS [2]; [4])	autophagy induction (U2OS [2]; [5])	autophagy induction (U2OS [2]; [6])	autophagy induction (U2OS [2]; [7])	autophagy induction (U2OS [2]; [8])	autophagy induction (U2OS [2]; [9])	autophagy induction (U2OS [2]; [10])	further results
COc1ccc(NS(=O)(=O)c2sc3ccc(Cl)cc3c2C)cc1N1CCNCC1.Cl	2.987%	-0.6318%	-59.945%	-1.761%	6.036%	-0.4148%	-59.1656%	-2.731%	1.788%	0.7642%	-61.0668%	-6.058%	-11.3104%	-5.358%	-7.917%	-7.314%	6.008%	2.399%	-3.71%	-14.5759%	autophagy induction (TERT-RPE1; Compound Concentration 0.5 uM, Timepoint 12 hours, 12 h, 0.5 µM): -2.268% and 1.364%; autophagy induction (TERT-RPE1; Compound Concentration 0.5 uM, Timepoint 24 hours, 24 h, 0.5 µM): -0.6721% and -2.131%; autophagy induction (TERT-RPE1; Compound Concentration 0.5 uM, Timepoint 36 hours, 36 h, 0.5 µM): -2.429% and -0.9432%; autophagy induction (TERT-RPE1; Compound Concentration 0.5 uM, Timepoint 60 hours, 60 h, 0.5 µM): -2.224% and -1.994%; autophagy induction (TERT-RPE1; Compound Concentration 2 uM, Timepoint 12 hours, 12 h, 2 µM): 1.355% and 0.7844%; autophagy induction (TERT-RPE1; Compound Concentration 2 uM, Timepoint 24 hours, 24 h, 2 µM): 2.1639% and -0.4459%; autophagy induction (TERT-RPE1; Compound Concentration 2 uM, Timepoint 36 hours, 36 h, 2 µM): 0.7328% and -1.399%; autophagy induction (TERT-RPE1; Compound Concentration 2 uM, Timepoint 60 hours, 60 h, 2 µM): 3.483% and -0.5872%; autophagy induction (TERT-RPE1; Compound Concentration 10 uM, Timepoint 12 hours, 12 h, 10 µM): 10.6024% and -4.741%; autophagy induction (TERT-RPE1; Compound Concentration 10 uM, Timepoint 24 hours, 24 h, 10 µM): 10.2969% and -5.794%; autophagy induction (TERT-RPE1; Compound Concentration 10 uM, Timepoint 36 hours, 36 h, 10 µM): 13.8741% and -5.163%; autophagy induction (TERT-RPE1; Compound Concentration 10 uM, Timepoint 60 hours, 60 h, 10 µM): 16.669% and -5.902%; autophagy induction (U2OS [2]; [11]): 10.7956%; autophagy induction (U2OS [2]; [12]): 3.064%; autophagy induction (U2OS [2]; [13]): -4.691%; autophagy induction (U2OS [2]; [14]): -6.499%
Cc1cc(C)cc(C(=O)N(C)[C@H](Cc2ccc(-c3ccccc3)cc2)C(=O)N[C@@H](Cc2c[nH]c3ccccc23)C(=O)O)c1	-3.328%	-1.823%	-2.116%	-0.69%	4.263%	2.513%	-0.01148%	-0.5825%	3.263%	3.281%	1.189%	0.3614%	20.0451%	13.0827%	8.17%	4.398%	5.392%	1.718%	-3.298%	-11.258%	autophagy induction (TERT-RPE1; [3]): -14.7352%; autophagy induction (TERT-RPE1; [4]): -10.2057%; autophagy induction (TERT-RPE1; [5]): -9.628%; autophagy induction (TERT-RPE1; [6]): -6.49%; autophagy induction (TERT-RPE1; [7]): -8.48%; autophagy induction (TERT-RPE1; [8]): -8.155%; autophagy induction (TERT-RPE1; [9]): -8.294%; autophagy induction (TERT-RPE1; [10]): -6.276%; autophagy induction (TERT-RPE1; [11]): -5.809%; autophagy induction (TERT-RPE1; [12]): -2.795%; autophagy induction (TERT-RPE1; [13]): -2.603%; autophagy induction (TERT-RPE1; [14]): -5.126%; autophagy induction (U2OS [2]; [11]): 17.6344%; autophagy induction (U2OS [2]; [12]): 16.7447%; autophagy induction (U2OS [2]; [13]): 13.7232%; autophagy induction (U2OS [2]; [14]): 11.2064%
